The source of these data is patent US20220402935A1, “HETEROCYCLIC COMPOUND” (FIMECS, INC., priority 2019, published 2022).

A value given as a limit tells only on which side of the number the result lay.

The target of this test is T1, IRAK-M (Homo sapiens, UniProt Q9Y616).
T1 sequence (Q9Y616 1-596): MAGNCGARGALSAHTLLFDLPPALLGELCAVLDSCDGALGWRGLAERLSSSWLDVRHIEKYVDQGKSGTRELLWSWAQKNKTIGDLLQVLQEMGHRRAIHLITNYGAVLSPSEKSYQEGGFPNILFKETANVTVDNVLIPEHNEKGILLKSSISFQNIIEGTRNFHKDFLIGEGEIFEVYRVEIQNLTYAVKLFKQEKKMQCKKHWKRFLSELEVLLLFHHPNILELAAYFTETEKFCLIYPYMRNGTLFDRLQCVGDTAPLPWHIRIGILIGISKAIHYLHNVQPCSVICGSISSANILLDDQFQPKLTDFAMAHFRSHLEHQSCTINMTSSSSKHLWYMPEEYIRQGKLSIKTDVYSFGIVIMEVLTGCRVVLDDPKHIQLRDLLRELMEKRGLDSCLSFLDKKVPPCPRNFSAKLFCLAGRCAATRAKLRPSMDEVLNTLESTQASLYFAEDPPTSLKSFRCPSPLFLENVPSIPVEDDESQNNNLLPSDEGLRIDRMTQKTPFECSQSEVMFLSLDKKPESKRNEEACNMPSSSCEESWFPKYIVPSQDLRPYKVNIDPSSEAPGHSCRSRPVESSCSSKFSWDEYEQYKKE
Put plainly: IRAK-M binding inhibitory activity (KINOMEscan active site-dependent competitive assay). The note with it: for remaining binding at 1 µM: concentration of the test compound 1 μM, first symbol of cell, read-out: IRAK-M binding inhibition activity % Ctrl; for IC50: second symbol of cell, read-out: IRAK-M binding inhibition IC50 value. Set-up: purchased Eurofins Discover X. The protocol:
IRAK-M binding inhibitory activity was evaluated using active site-dependent competitive assay KINOMEscan® provided by Eurofins Discover X (Goldstein, D. M. et al. High-throughput kinase profiling as a platform for drug discovery. Nat. Rev. Drug Discovery. 7, 391-397 (2008)). IRAK-M binding inhibitory activity of the test compound was evaluated. […] The “% Ctrl” is calculated by the following formula.
(test compound signal−positive control compound signal)/(negative control compound signal−positive control compound signal)×100
Negative control compound=DMSO (100 Ctrl)
Positive control compound=control compound (0%×Ctrl)

In the case of `Cc1ccccc1S(=O)(=O)N1CCC(Oc2ncnc3ccsc23)CC1` [Ref. example 47, 4-((1-(o-tolylsulfonyl)piperidin-4-yl)oxy)thieno[3,2-d]pyrimidine], the remaining binding at 1 µM is less than 25%.
Same read-out and setting: the same measure for `O=C1NC(=O)c2cc(Nc3ncnc4ccsc34)ccc21` [Ref. example 27, 5-(thieno[3,2-d]pyrimidin-4-ylamino)isoindoline-1,3-dione]: 50 to 75%; for `NC(=O)c1cccc(Nc2ncnc3ccsc23)c1` [Ref. example 20, 3-(thieno[3,2-d]pyrimidin-4-ylamino)benzamide]: 50 to 75%.
Usually IC50 stands for the concentration that gives 50% inhibition. On to `C=CCOc1cc(CN2CCC(Oc3ccnc4cc(C)sc34)CC2)on1` [Ref. example 72, 3-(allyloxy)-5-((4-((2-methylthieno[3,2-b]pyridin-7-yl)oxy)piperidin-1-yl)methyl)isoxazole], for which the IC50 was in the range of 30 to 100 nM.
For the molecule `O=S(=O)(C1CC1)N1CCC(Oc2ncnc3ccsc23)CC1` [Ref. example 44, 4-((1-(cyclopropylsulfonyl)piperidin-4-yl)oxy)thieno[3,2-d]pyrimidine], the remaining binding at 1 µM fell in the range of 25 to 50%.
As for `COc1ccccc1S(=O)(=O)N1CCC(Oc2ncnc3ccsc23)CC1` [Ref. example 46, 4-((1-((2-methoxyphenyl)sulfonyl)piperidin-4-yl)oxy)thieno[3,2-d]pyrimidine], the remaining binding at 1 µM was less than 25%.
Same read-out and setting: with `O=S(=O)(c1cnn(Cc2ccccc2)c1)N1CCC(Oc2ncnc3ccsc23)CC1` [Ref. example 59, 4-((1-((1-benzyl-1H-pyrazol-4-yl)sulfonyl)piperidin-4-yl)oxy)thieno[3,2-d]pyrimidine] the figure was 25 to 50%.
Still for that read-out and setting: with `Cn1nc(O)cc1CN1CCC(Oc2ccnc3ccsc23)CC1` [Ref. example 68, 1-methyl-5-((4-(thieno[3,2-b]pyridin-7-yloxy)piperidin-1-yl)methyl)-1H-pyrazol-3-ol] the figure was 25 to 50%; with `COc1ccc(S(=O)(=O)N2CCC(Oc3ncnc4ccsc34)CC2)cc1` [Ref. example 51, 4-((1-((4-methoxyphenyl)sulfonyl)piperidin-4-yl)oxy)thieno[3,2-d]pyrimidine], 25 to 50%; with `Cc1cc2nccc(OC3CCN(Cc4cc(O)no4)CC3)c2s1` [Ref. example 87, 5-((4-((2-methylthieno[3,2-b]pyridin-7-yl)oxy)piperidin-1-yl)methyl)isoxazol-3-ol], 25 to 50%.
The same measure, in the same setting: the same measure for `Cn1nccc1CN1CCC(Oc2ccnc3ccsc23)CC1` [Ref. example 77, 7-((1-((1-methyl-1H-pyrazol-5-yl)methyl)piperidin-4-yl)oxy)thieno[3,2-b]pyridine]: 25 to 50%; for `FC(F)(F)c1cc(Nc2ncnc3ccsc23)ccn1` [Ref. example 22, N-(2-(trifluoromethyl)pyridin-4-yl)thieno[3,2-d]pyrimidin-4-amine]: 50 to 75%.
With `C=CCOc1cc(CN2CCC(Oc3ccnc4cc(C#N)sc34)CC2)on1` [Ref. example 86, 7-((1-((3-(allyloxy)isoxazol-5-yl)methyl)piperidin-4-yl)oxy)thieno[3,2-b]pyridine-2-carbonitrile], the IC50 was 100 to 300 nM.
Turning to `Cc1cc(Nc2ncnc3ccsc23)n(-c2ccccn2)n1` [Ref. example 25, N-(3-methyl-1-(pyridin-2-yl)-1H-pyrazol-5-yl)thieno[3,2-d]pyrimidin-4-amine], the remaining binding at 1 µM lay within 25 to 50%.
Consider `Cc1nn(C)cc1CN1CCC(Oc2ccnc3ccsc23)CC1` [Ref. example 74, 7-((1-((1,3-dimethyl-1H-pyrazol-4-yl)methyl)piperidin-4-yl)oxy)thieno[3,2-b]pyridine], for which the remaining binding at 1 µM is 50 to 75%.
The same measure, in the same setting: with `c1nc(Nc2ccc3cn[nH]c3c2)c2sccc2n1` [Ref. example 28, N-(1H-indazol-6-yl)thieno[3,2-d]pyrimidin-4-amine] the figure was 50 to 75%.
Still for that read-out and setting: with `CCOC(=O)CCS(=O)(=O)N1CCC(Oc2ncnc3ccsc23)CC1` [Ref. example 43, ethyl 3-((4-(thieno[3,2-d]pyrimidin-4-yloxy)piperidin-1-yl)sulfonyl)propanoate] the figure was 50 to 75%; with `Cn1cc(CN2CCC(Oc3ccnc4ccsc34)CC2)cn1` [Ref. example 73, 7-((1-((1-methyl-1H-pyrazol-4-yl)methyl)piperidin-4-yl)oxy)thieno[3,2-b]pyridine], not below 75%.
The same measure, in the same setting: with `CN1CCC(Oc2ncnc3cc(-c4cnn(C)c4)sc23)CC1` [Ref. example 31, 6-(1-methyl-1H-pyrazol-4-yl)-4-((1-methylpiperidin-4-yl)oxy)thieno[3,2-d]pyrimidine] the figure was not below 75%; with `c1ccc(OC2CCOC2)c(Nc2ncnc3ccsc23)c1` (centres unmarked) [Ref. example 19, N-(2-((tetrahydrofuran-3-yl)oxy)phenyl)thieno[3,2-d]pyrimidin-4-amine], 50 to 75%; with `C=CCOc1cc(C(C)N2CCC(Oc3ccnc4cc(C)sc34)CC2)on1` (stereo not drawn) [Ref. example 8, 3-(allyloxy)-5-(1-(4-((2-methylthieno[3,2-b]pyridin-7-yl)oxy)piperidin-1-yl)ethyl)isoxazole (enantiomer)], less than 25%.
`O=S(=O)(c1ccccc1Cl)N1CCC(Oc2ncnc3ccsc23)CC1` [Ref. example 45, 4-((1-((2-chlorophenyl)sulfonyl)piperidin-4-yl)oxy)thieno[3,2-d]pyrimidine]: the remaining binding at 1 µM was less than 25%.
Same read-out and setting: with `c1ccc(-c2cc3ncnc(NCc4cccnc4)c3s2)cc1` [Ref. example 16, 6-phenyl-N-(pyridin-3-ylmethyl)thieno[3,2-d]pyrimidin-4-amine] the figure was 50 to 75%.
Same read-out and setting: with `O=S(=O)(Cc1ccccc1)N1CCC(Oc2ncnc3ccsc23)CC1` [Ref. example 41, 4-((1-(benzylsulfonyl)piperidin-4-yl)oxy)thieno[3,2-d]pyrimidine] the figure was 25 to 50%; with `CN1CCC(Oc2ncnc3cc(I)sc23)CC1` [Ref. example 36, 6-iodo-4-((1-methylpiperidin-4-yl)oxy)thieno[3,2-d]pyrimidine], not below 75%; with `O=S(=O)(c1cccc(Oc2ccccc2)c1)N1CCC(Oc2ncnc3ccsc23)CC1` [Ref. example 64, 4-((1-((3-phenoxyphenyl)sulfonyl)piperidin-4-yl)oxy)thieno[3,2-d]pyrimidine], less than 25%.
Same read-out and setting: with `O=C(Cn1nccn1)N1CCC(Oc2ccnc3ccsc23)CC1` [Ref. example 82, 1-(4-(thieno[3,2-b]pyridin-7-yloxy)piperidin-1-yl)-2-(2H-1,2,3-triazol-2-yl)ethan-1-one] the figure was 50 to 75%; with `c1ccc(-c2cc3ncnc(Nc4ccccn4)c3s2)cc1` [Ref. example 15, 6-phenyl-N-(pyridin-2-yl)thieno[3,2-d]pyrimidin-4-amine], 25 to 50%.
On to `O=C1CCC(N2C(=O)c3cccc(OCCOCCOCCOCCOc4cc(CN5CCC(Oc6ccnc7ccsc67)CC5)on4)c3C2=O)C(=O)N1` (centres unmarked) [Example 67, 2-(2,6-dioxopiperidin-3-yl)-4-(2-(2-(2-(2-((5-((4-(thieno[3,2-b]pyridin-7-yloxy)piperidin-1-yl)methyl)isoxazol-3-yl)oxy)ethoxy)ethoxy)ethoxy)ethoxy)isoindoline-1,3-dione], for which the IC50 was in the range of 100 to 300 nM.
